Test results: patent publication US20160176924A1, “MODIFIED PEPTIDES AS POTENT INHIBITORS OF THE PSD-95/NMDA RECEPTOR INTERACTION” (priority 2008, published 2016)

Legend:
PDZ1-2 of PSD-95 = target: T1, PDZ1-2 of PSD-95 (Homo sapiens, UniProt P78352, I195W); experiment: Stopped-flow fluorimetry (fluorescence titration assay); format: binding
T1 construct: PDZ1-2 (residues 61-249) tandem; made in house; host or cells: E. coli BL21-DE3 pLysS
Experimental: The HIS-PDZ2 and HIS-PDZ1-2 expression constructs of PSD-95 were genetically manipulated to encode a tryptophan, (in position 51 of SEQ ID NO: 4 and position 145 in SEQ ID NO: 8, respectively) instead of isoleucine. Binding between PDZ2 and PDZ1-2 and peptide ligand 74 was then monitored and quantified, by measuring the fluorescence increase from this tryptophan upon ligand recognition. (excitation λ at 280 nm, emission λ>320 nm). Stopped-flow measurements were performed at 10° C. or 25° C. on an SX-20MV stopped-flow spectrometer (Applied Photophysics, Leatherhead, UK). The peptide, in varying amounts, was rapidly mixed with a constant amount of PDZ and the change in fluorescence was measured over time. The fluorescence versus time plots was fitted to a single or double exponential equation, from which one or two observed rate constants were obtained. Observed rate constants were then plotted against the concentration of the varied species and microscopic rate constants determined by fitting the data to the equation for a bimolecular association (Eq. 1)
kobs=((kon^2(n−[A]0)^2+koff^2+2konkoff(n+[A]0))^0.5 (Eq. 1) […]
The equilibrium dissociation constant Kd of the PDZ-peptide complex was calculated by the experimental determined kon and koff.

PDZ1-2 tandem of PSD-95 = target: T2, PDZ1-2 tandem of PSD-95 (Homo sapiens, UniProt P78352); experiment: FP heterologous competition binding assay; conditions: mean ± SEM
T2 construct: PDZ1-2 (residues 61-249) tandem; made in house; host or cells: E. coli BL21-DE3 pLysS
Text: (§1) Determined IC50 values may be converted to Ki values.^5 Suitable fluorophores include either 5-FAM or Cy5, which may be coupled to a tripeptide (KSG or CSG) linker attached to the N-terminus of the undecapeptide, to give 5-FAM-NR2B, Cy5-NR2B, 5-FAM-CRIPT and Cy5-CRIPT. The 5-FAM fluorophore may be attached to the undecapeptides by coupling with HATU. The Cy5 fluorophore may be conjugated to the undecapeptides by coupling Cy5-maleimide to the cysteine side chain of the tripeptide sequence CSG attached to the N-terminus of the peptide, as detailed in the Methodology section.
(§2) To measure the affinities between non-fluorescent peptides and PDZ domains, heterologous competition bindings assay were performed. This was done by adding increasing concentrations of peptide to a fixed concentration of Cy5-NR2B, 5-FAM-NR2B, Cy5-CRIPT or 5-FAM-CRIPT (50 nM) and PDZ (20 μM for PDZ1, 3 μM for PDZ2 and 1-2 and 5 μM for PDZ3) in the same TBS buffer and conditions as described above. FP values were then fitted to the general equation: Y=Bottom+(Top−Bottom)/[1[…](10̂^X-logIC50)], where X is the logarithmic value of peptide concentration. Hereby the IC50 value was obtained, which is used to calculate the theoretical competitive inhibition constant, Ki.^5
(§3) A convenient and reliable way to examine interactions between peptide analogues and PDZ domains is by using a fluorescence polarization (FP) assay. The three PDZ domains, PDZ1-3, of PSD-95 were expressed individually as set out above, while PDZ1-2 was also expressed as a tandem construct. […] IC50 values were then converted to Ki values.^5

PDZ1 of PSD-95 = target: T3, PDZ1 of PSD-95 (Homo sapiens, UniProt P78352); experiment: FP heterologous competition binding assay; conditions: FP competition; mean ± SEM; NA = no activity/affinity
T3 construct: PSD-95 PDZ1 (residues 61-151); made in house; host or cells: E. coli BL21-DE3 pLysS
Text: as §1, §2, §3

PDZ2 of PSD-95 = target: T4, PDZ2 of PSD-95 (Homo sapiens, UniProt P78352); experiment: FP heterologous competition binding assay; conditions: FP competition; mean ± SEM; NA = no activity/affinity
T4 construct: PDZ2 (residues 155-249); made in house; host or cells: E. coli BL21-DE3 pLysS
Text: as §1, §2, §3

[1] = tested on: cultured cortical neurons; experiment: Neuronal NMDA excitotoxicity assay (LDH release); format: cell-based, rat; conditions: 500 nM
Text: When cultured cortical neurons are exposed to high concentrations of NMDA, an excitoxic cascade is initiated, which leads to cellular damage and ultimately neuronal cell death. Consequently, the cell membranes are destroyed, and cytoplasmic enzymes are released into the cell surroundings. The extent of this neuronal cell death can be quantified by measuring the release of cytoplasmic lactate dehydrogenase (LDH) enzyme into the cell medium. The compounds of interest and control compound (3) are investigated with respect to their abilities to attenuate NMDA-mediated toxicity. Compounds that are active in this assay are both membrane permeable, and can prevent ex vivo excitotoxicity, which are important properties for therapeutics towards excitotoxicity mediated diseases.
Cortical neurons were surgically removed from rats (e.g. E21) and then cultured for 7-9 days in vitro in Neurobasal A medium with B-27 supplement (each supplied by Invitrogen), further supplemented with 1 mM glutamine, 50 units/ml penicillin, and 50 μg/ml streptomycin. The following steps were then performed:
1. Samples of the cultured cortical neurons were removed from the Neurobasal-A based culture medium, at various time points prior to exposure to compound, and placed into “transfection medium” ([…]; as defined by Bading et al (1993) Science 260, 181-186) comprising: 10% modified Minimum Essential Medium (supplied by Invitrogen; product no: 21090022; containing Earles salt, but no L-glutamine), 90% Salt-Glucose-Glycine (SGG) medium: (114 mM NaCl, 0.219% NaHCO3, 5.292 mM KCL, 1 mM MgCl2, 2 mM CaCl2, 10 mM HEPES, 1 mM Glycine, 30 mM glucose, 0.5 mM sodium pyruvate, 0.1% Phenol Red), insulin-transferrin-selenite supplement (supplied by Sigma: 7.5 μg insulin/ml, 7.5 μg transferring/ml and 7.5 ng sodium selenite/ml); with a final osmolarity of 325 mosm/l. All subsequent steps were performed in this TM medium. 2. Samples of neurons are exposed to an NMDAR/PSD-95 inhibitor of the invention (compounds 40, 52-90) at a final concentration of between 0.05-50 μM for a period of between 0.5 to 1.5 hours. […] 3. Each sample of neurons was washed at least one time in TM medium to remove the NMDAR/PSD-95 inhibitor, and placed in TM medium. 4. After various periods of time, the samples of neurons were exposed to NMDA at a concentration of between 10-100 μM for a period of 0.5 to 1.5 hours, preferably 1 hour, after which the samples were again placed in TM medium for 24 hours. 5. LDH in the cell medium was quantified using commercial available kits (e.g. Promega Biotech AB, cat no G1780).

[2] = Human blood plasma stability assay; format: in vitro ADME
Experimental: In this assay, the half-life (T1/2) of a compound in blood plasma is measured in vitro, whereby its susceptibility to degradation by proteases, peptidases and general plasma contents is quantified.
Compounds of interest were dissolved in human blood plasma (270 μl; 3H Biomedical, Sweden, cat no 1300-1-P50) to a concentration of 0.25 mM (30 μL of 2.5 mM) and incubated at 37° C. Aliquots (30 μl) were removed at various time intervals (0, 5, 10, 20, 40, 80, 160, 320, 960, 1280, 2550, 4560 and 7240 min) and quenched with 60 μL trichloroacetic acid (aq., 5%). The aliquots were vortexed, and incubated for at least 15 min, at 4° C. prior to centrifugation at 18,000 g for 2 min and the supernatant was analyzed by RP-HPLC to quantify the remaining compound (absorbance at 218 nm).

CC[C@H](C)[C@H](NC(=O)CCOCCOCCOCCOCCOCCOCCOCCOCCOCCOCCOCCOCCOCCC(=O)N[C@H](C(=O)N[C@@H](CCC(=O)O)C(=O)N[C@@H](CO)C(=O)N[C@@H](CC(=O)O)C(=O)N[C@H](C(=O)O)C(C)C)[C@@H](C)CC)C(=O)N[C@@H](CCC(=O)O)C(=O)N[C@@H](CO)C(=O)N[C@@H](CC(=O)O)C(=O)N[C@H](C(=O)O)C(C)C [(IESDV)2PEG12 (74), (IESDV)2PEG12]
Ki (PDZ1-2 of PSD-95): ~0.1 µM | Ki (PDZ1-2 tandem of PSD-95): ~0.1 µM | Ki (PDZ1 of PSD-95): 22 ± 1.4 µM | Ki (PDZ2 of PSD-95): 3.1 ± 0.13 µM | effect on NMDA-mediated excitotoxicity, in words [1]: inhibit neuronal excitotoxicity, as efficiently as the clinical candidate Tat-N2B (3) | degradation in human blood plasma, in words [2]: no significant degradation could be detected over a time period of 6 days | half-life at […] ([2]; human, plasma, Blood plasma half life (T1/2)): > 133 h
